Experimental data as given in PubChem BioAssay (NCI).
Several values for one entry are separate records, joined by “and”; a condition that tells them apart may be missing. Equal entries are not always repeated.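 A five-concentration, 48-hour dose response in 96-well plates underlies each endpoint, interpolated linearly between surrounding concentrations. GI50: concentration for 50% inhibition of growth. TGI: concentration producing complete growth inhibition.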

Experiments:
Assay in all cases: growth of human tumour cells (NCI), 48 h
[1] = tested on: U251 CNS
[2] = tested on: SNB-75 CNS
[3] = tested on: OVCAR-5 ovarian
[4] = tested on: CAKI-1 renal
[5] = tested on: HT29 colon
[6] = tested on: BT-549 breast
[7] = tested on: T-47D breast
[8] = tested on: HS 578T breast
[9] = tested on: SN12C renal

SMILES	TGI [1] [µM]	TGI [2]	TGI [3]	TGI [4] [µM]	TGI [5]	TGI [6] [µM]	TGI [7] [µM]	TGI [8] [µM]	TGI [9] [µM]	GI50 [7] [µM]	GI50 [2]	GI50 [8] [µM]	GI50 [3]	GI50 [4] [µM]	GI50 [6] [µM]	GI50 [9] [µM]
O=C(N/N=C(/COc1ccccc1Cl)N=Cc1ccncc1)c1ccncc1	> 100	98.7 µM	> 100 µM	> 100	> 100 µM	> 100	> 100	> 100	> 100	–	–	–	–	–	–	–
Cc1c(O)c(OC2OC(CO)C(O)C(O)C2O)cc2c1C=C[C@@H]1[C@@]2(C)C(=O)C[C@]2(C)[C@@H]([C@@](C)(O)C(=O)CCC(C)(C)O)[C@H](O)C[C@@]12C (stereo not given in full)	43.2	62.9 µM	61.2 µM	36.5	83.1 µM	49.5	46.3	–	44.1	–	–	–	–	–	–	–
CN(C)CC1CCC/C(=C\c2ccc(OC(=O)/C=C/c3ccc(Cl)c(Cl)c3)cc2)C1=O (stereo not given)	27.9	68.5 µM	> 65.3 µM	5.81	4.68 µM	8.01	6.75	> 85.3	5.64	–	–	–	–	–	–	–
CC1=CCC[C@H]2[C@](C)(CC3=CC(=O)C(Sc4ccccc4)=CC3=O)[C@@H](C)CC[C@]12C	40.1	54.5 µM	32.1 µM	36.7	–	34.1	72	–	31.6	20.4	–	–	–	–	–	–
COc1ccc(N=C2C(=Nc3ccc(OC)cc3)N(c3ccc(N(C)C)cc3)C(=S)N2c2ccc(OC)cc2)cc1	> 100	> 91.8 µM	> 100 µM	> 100	> 100 µM	> 100	> 100	> 100	> 100	–	–	–	–	–	–	–
COC1=C2C=[N+](C)C3C(=C2C=CC1OC)Cc1cc2c(cc13)OCO2 (stereo not given)	30.7	28 µM	32.1 µM	29.3	26.3 µM	28.1	18.8	51.2	18	–	–	–	–	–	–	–
CCOC(=O)C(=CN1CCNC1=S)C(=O)OCC	> 100	> 100 µM	> 100 µM	> 100	> 100 µM	> 100	> 100	> 100	> 100	–	> 100 µM	> 100	–	–	–	–
CCOC(=O)c1[nH]c2cccc3c2c1CC[C@H](NC(=O)C(F)(F)F)C3=O	72.7	56.7 µM	> 100 µM	28	> 100 µM	> 100	–	61.8	> 100	–	–	–	–	–	–	–
CCCCCN(CCCCC)CC(C)(C)C(O)c1ccc(OC)c2ccccc12 (stereo not given)	22.7	51.9 µM	31.4 µM	28	16.5 µM	–	21.1	39.8	25.2	–	–	–	–	–	–	–
COC(=O)c1cccc(OC)c1C#Cc1c(OC)cccc1OC	> 100	> 100 µM	> 100 µM	> 100	> 100 µM	> 100	> 100	> 100	> 100	–	–	–	–	–	–	–
O=C(O)CNC(=O)c1ccc2cc(C(=O)N3CC(CCl)c4ccc([N+](=O)[O-])cc43)[nH]c2c1 (stereo not given)	> 100	> 100 µM	> 100 µM	> 100	> 100 µM	> 100	> 100	> 100	> 100	–	–	–	–	–	–	–
CC12CCC(C(=Nc3cc(C(F)(F)F)cc(C(F)(F)F)c3)C1=O)C2(C)C (stereo not given)	> 100	–	> 100 µM	> 100	> 100 µM	> 100	74.3	–	–	–	–	–	–	–	–	–
COC([C@@H](OC(=O)c1ccccc1)[C@H](OC(=O)c1ccccc1)C(O)COC(=O)c1ccccc1)n1cc(C)c(=O)[nH]c1=O (stereo not given in full)	58.3	73.8 µM	62.6 µM	–	41.4 µM	77	> 100	> 100	> 100	–	–	–	–	–	–	–
CCCCCCCCCCCCCCCCCC(=O)Nc1ccn(C2CCC(COP(=O)(O)O)O2)c(=O)n1 (stereo not given)	> 100	> 100 µM	> 100 µM	> 100	> 100 µM	> 100	> 100	> 100	> 100	–	–	–	–	–	–	–
Cc1ccc(S(=O)(=O)N/N=C2/CCC(C(C)(C)C)CC2Br)cc1 (stereo not given)	21.1	87 µM	43.6 µM	69.1	88.9 µM	75.1	> 100	47.1	32.4	–	–	–	–	–	–	–
CN(Cc1cnc2nc(N)nc(N)c2n1)c1ccc(C(=O)NC(CCC(=O)NC(CC(P(=O)(O)O)P(=O)(O)O)C(=O)O)C(=O)O)cc1 (stereo not given)	> 100	> 100 µM	> 100 µM	–	> 100 µM	> 100	> 100	> 100	> 100	–	–	–	–	–	–	–
COCC12CCC(OC)C34C5CC6(O)C(OC)CC(OC(C)=O)(C5C6OC(=O)c5ccccc5)C(C(OC)C13)C4N(C)C2 (stereo not given)	> 100	–	> 100 µM	> 100	> 100 µM	> 100	> 100	> 100	> 100	–	–	–	–	–	–	–
NC(CC(O)(c1ccccc1)c1ccccc1)c1ccccc1S (stereo not given)	28.3	28.2 µM	31.7 µM	–	37.5 µM	27.8	37.4	51	44.1	–	–	–	–	–	–	–
Clc1ccc(C2CC(c3cccc(Nc4ccncc4)c3)=NN2c2cc(Cl)cc(Cl)c2)cc1 (stereo not given)	–	2.93 µM	3.33 µM	3.13	–	3.57	–	–	3.29	–	1.4 µM	–	1.78 µM	1.61	1.85	1.73
CC(C)(C)OC(=O)N1[C@@H]2Cc3ccc(N)cc3[C@@]1(C)c1ccccc12	32.4	–	> 100 µM	> 100	44.1 µM	43.4	70.7	> 100	30.7	–	–	–	–	–	–	–
O=C1CS[C@@](CC(c2ccc(Cl)cc2)c2ccc(Cl)cc2)(c2ccc(Cl)cc2)N1	63.1	> 100 µM	> 100 µM	> 100	> 100 µM	> 100	> 100	> 100	5.42	–	–	–	–	–	–	–
COc1ccc(CNc2nc3cc(C(F)(F)F)ccc3nc2-c2ccccc2)cc1OC	–	> 100 µM	> 100 µM	75.4	61.1 µM	> 100	> 100	> 100	–	–	–	–	–	–	–	–
CN(C)CCNC(=O)c1ccc(Cl)c2cc3ccccc3nc12	10.6	5.84 µM	10.7 µM	11.6	4.9 µM	7.82	12.1	3.07	4.18	–	–	–	–	–	–	–
Cc1cc(N(CCC#N)CCC#N)ccc1/C=C1\SC(=S)NC1=O	> 100	93.6 µM	> 100 µM	> 100	> 100 µM	> 100	> 100	85	> 100	–	–	–	–	–	–	–

SMILES	TGI [1] [µM]	TGI [2]	TGI [3]	TGI [4] [µM]	TGI [5]	TGI [6] [µM]	TGI [7] [µM]	TGI [8] [µM]	TGI [9] [µM]	GI50 [7] [µM]	GI50 [2]	GI50 [8] [µM]	GI50 [3]	GI50 [4] [µM]	GI50 [6] [µM]	GI50 [9] [µM]
CCOC(=O)CCC(NC(=O)Cc1ccc(Oc2nc3ccccc3nc2-c2ccccc2)cc1)C(=O)OCC (stereo not given)	> 100	> 100 µM	> 100 µM	> 100	> 100 µM	> 100	99.7	> 100	> 100	–	–	–	–	–	–	–
Cc1c2ccccc2c(C)n2c1nc1ccccc12	–	27.7 µM	48.3 µM	–	69 µM	35.3	89.6	54.5	30.9	–	–	–	–	–	–	–
COP(=O)(O)C(N)Cc1c[nH]c2ccccc12 (stereo not given)	> 100	–	> 100 µM	> 100	> 100 µM	–	> 100	> 100	> 100	–	–	–	–	–	–	–
CC(=O)OC(C)(C)CCC(=O)[C@](C)(O)[C@H]1[C@H](O)C[C@@]2(C)[C@@H]3CC=C4C(C)=C(OC5OC(CO)C(O)C(O)C5O)C(=O)C[C@@H]4[C@]3(C)C(=O)C[C@]12C (stereo not given in full)	> 100	> 100 µM	> 100 µM	> 100	> 100 µM	> 100	> 100	–	> 100	–	–	–	–	–	–	–
CC(=O)Oc1cc(OC(C)=O)c2c(C)cc(=O)oc2c1	> 100	> 100 µM	> 100 µM	–	> 100 µM	–	–	> 100	> 100	–	–	–	–	–	–	–
COc1cc(OC2OC(COC(=O)c3cc(O)c(O)c(O)c3)C(O)C(O)C2O)ccc1O (stereo not given)	> 100	> 100 µM	> 100 µM	> 100	> 100 µM	> 100	–	> 100	> 100	–	–	–	–	–	–	–
CCOc1ccc(/C=C2\NC(=S)N(/C=C3\C(=O)Oc4ccccc4C3=O)C2=O)cc1	78.4	61.6 µM	> 100 µM	53.5	82.1 µM	54.9	–	96.2	45.3	–	–	–	–	–	–	–
CC(=O)N(C(C)=O)n1c(Cc2ccc(C)cc2)nn(C(C)=O)c1=O	> 100	> 100 µM	> 100 µM	> 100	> 100 µM	> 100	> 100	> 100	> 100	–	–	–	–	–	–	–
c1csc(-c2ccsc2-c2ccsc2)c1	> 100	> 100 µM	> 100 µM	> 100	> 100 µM	> 100	> 100	> 100	> 100	–	–	–	–	–	–	–
COc1ccc2[nH]c(C(=O)N3CC(CCl)c4c3cc(N)c3ccccc43)cc2c1 (stereo not given)	0.0409	–	0.315 µM	< 0.01	1.1 µM	< 0.0261	< 0.0281	–	< 0.0183	–	–	–	–	–	–	–
N[C@H](CCC(=O)NCP(=O)(O)O)C(=O)O	> 100	–	> 100 µM	–	> 100 µM	> 100	> 100	> 100	> 100	–	–	–	–	–	–	–
Cc1cc(O)cc(O)c1C(=O)O[C@]1(C)C(=O)C=C2C=C(/C=C/C(=O)O)OC=C2C1=O	–	> 100 µM	> 100 µM	> 100	> 100 µM	–	> 100	> 100	> 100	–	–	–	–	–	–	–
CC(=O)NC1(C(=O)N[C@@H](Cc2ccccc2)C(=O)NC2CCCCC2)Cc2ccc3ccccc3c2-c2c(ccc3ccccc23)C1	> 100	> 100 µM and 36.6 µM	> 100 µM and 98 µM	> 100	> 100 µM and 57.5 µM	> 100	> 100	> 100	–	–	7.84 µM and 1.43 µM	–	26.5 µM and 11.5 µM	–	–	–
COC(=O)c1ccccc1C1=C([N+](=O)[O-])C(c2ccccc2)C(C#N)=C(N)O1 (stereo not given)	> 100	> 100 µM	> 100 µM	–	> 100 µM	–	> 100	> 100	> 100	–	–	–	–	–	–	–
CN[C@@H](C)[C@@H](O)c1ccccc1	> 100	> 100 µM	> 100 µM	> 100	> 100 µM	–	> 100	> 100	> 100	–	–	–	–	–	–	–
O=C(O)CCc1ccc2c(c1)CC1(Cc3ccccc3C1)C2	> 100	96.4 µM	> 100 µM	–	> 100 µM	–	> 100	> 100	> 100	–	–	–	–	–	–	–
NC(=Nc1ccccc1)c1ccccc1N	> 100	> 100 µM	> 100 µM	> 100	> 100 µM	> 100	–	> 100	–	–	–	–	–	–	–	–
Nc1ccc2ccc(-c3ccc[nH]3)nc2n1	> 100	> 100 µM	> 100 µM	> 100	–	> 100	> 100	–	> 100	–	–	–	–	–	–	–
O=[N+]([O-])c1cccc(Cl)c1Oc1ccc(S(=O)(=O)/N=C(\NO)Nc2ccc(Cl)cc2)cc1	27.5	–	32.8 µM	25.8	30.8 µM	29.9	29.3	27.6	25.7	–	–	–	–	–	–	–
CCC(=O)/C(=C\I)c1ccccc1	4.83	3.48 µM	3.48 µM	–	2.51 µM	3.3	–	> 100	5.29	–	–	–	–	–	–	–
CC(=O)OCCCCn1cc(Cn2ccc(=O)n(Cc3cn(CCCCOC(C)=O)nn3)c2=O)nn1	> 100	> 100 µM	> 100 µM	> 100	–	> 100	> 100	> 100	> 100	–	–	–	–	–	–	–
COc1c(C)c(C/C=C(\C)CC/C=C(\C)CC/C=C(\C)CCC=C(C)C)c(OC)c2ccccc12	> 100	> 100 µM	> 100 µM	> 100	> 100 µM	> 100	–	> 100	> 100	–	–	–	–	–	–	–
O=C1/C(=C/c2ccccc2)NC(=S)N1CN1CCCCC1	> 100	> 100 µM	> 100 µM	–	> 100 µM	–	–	> 100	> 100	–	–	–	–	–	–	–
